Experiments:
AMARE = assay: greenhouse herbicidal action, post-emergence treatment; type: in vivo, common amaranth; conditions: post-emergence method, application rates of 7.8 and 3.9 g of a.s./ha
Description: (§1) The seeds of the test plants were sown separately for each species. For the post-emergence treatment, the test plants were first grown to a height of 3 to 15 cm, depending on the plant habit, and then treated with the active compounds which had been suspened or emulsified in water. To this end, the test plants were either sown directly and grown in the same containers, or they were first grown separately as seedlings and transplanted into the test containers a few days prior to the treatment. The application rates for the post-emergence treatments were 62.5, 31.2, 15.6, 7.8 and 3.9 g of a.s./ha. Depending on the species, the plants were kept at 10-25° C. or 20-35° C. The test period extended over 2 to 4 weeks. During this time, the plants were tended, and their response to the individual treatments was evaluated. Evaluation was carried out using a scale from 0 to 100. 100 means no emergence of the plants, or complete destruction of at least the above-ground parts, and O means no damage, or normal course of growth. The plants used in the greenhouse experiments were of the following species: [table]

CHEAL = assay: as above; type: in vivo, lambsquarters (goosefoot); conditions: post-emergence method, application rates of 7.8 and 3.9 g of a.s./ha
Description: as §1

PHBPU = assay: as above; type: in vivo, common morning glory; conditions: post-emergence method, application rates of 7.8 and 3.9 g of a.s./ha
Description: as §1

ABUTH = assay: as above; type: in vivo, velvet leaf; conditions: post-emergence method, application rates of 7.8 and 3.9 g of a.s./ha
Description: as §1

melting point | Compound | herbicidal activity against AMARE (AMARE) | herbicidal activity against CHEAL (CHEAL) | herbicidal activity against PHPBU (PHBPU) | herbicidal activity against ABUTH (ABUTH)
 | 2-[4-Chloro-2-fluoro-5-(2-propynyloxy)phenyl]-3-thiotetrahydro-1H-(1,2,4)triazolo[1,2-c][1,3,4]oxadiazin-1-one [Example 5] | very good | very good | very good | very good
226 to 227 °C | C#CCOc1cc(-n2c(=O)n3n(c2=S)COCC3)c(F)cc1C#N [Example 75, 2-[4-Cyano-2-fluoro-5-(propargyloxy)phenyl]-3-thioxotetrahydro-1H-[1,2,4]-triazolo-[1,2-c][1,3,4]-oxadiazin-1-one] |  |  |  | 

— patent US20040097728A1, “Method for producing anellated tetrahydro-{1h}-triazoles” (priority 2000, published 2004)
